Patent US20260022143A1, “Cyclic Peptide Inhibitors of IL-23” (JANSSEN PHARMACEUTICA NV, priority 2022, published 2026)
Counter-ions that a name gives are not always drawn. Like-named read-outs stand apart in the source and are kept apart here. Starred links: 1 amine or outer side, 2 acyl side, 3 side chain; linkers in the order of their positions; H or OH if unused. Positions of bridges follow the written chain, without caps; N, C: chain ends. Non-standard residues stand in square brackets, D forms with d. Residues, ends and D or L forms follow the SMILES beside them. *: point of attachment. Me3N+CH2CH2(OCH2CH2)4CO = C[N+](C)(C)CCOCCOCCOCCOCCC(=O)*; Me3N+(CH2)2O(CH2)2O(CH2)2CO = C[N+](C)(C)CCOCCOCCC(=O)*; Trp(7-Me) = Cc1cccc2c(C[C@H](N)C(=O)O)c[nH]c12; dLys(Me3) = C[N+](C)(C)CCCC[C@@H](N)C(=O)O; X1 = CN(CC[C@H](N[*:1])C(=O)[*:2])[*:3]; 2Nal = N[C@@H](Cc1ccc2ccccc2c1)C(=O)O; AEF = NCCOc1ccc(C[C@H](N)C(=O)O)cc1; 3Pal = N[C@@H](Cc1cccnc1)C(=O)O; Lys(Me) = CNCCCC[C@H](N)C(=O)O; Pen = CC(C)(S)[C@H](N)C(=O)O; Thp = NC1(C(=O)O)CCOCC1; X3 = C[N+](C)(C)CCCCC*; Me2NCH2CH2 = CN(C)CC*; Tfa = O=C(C(F)(F)F)*; Sar = CNCC(=O)O

Legend:
[1] = Exposed Polar Surface Area (EPSA); assay type: physicochemical; details: SFC on Chirex 3014 column, sample 1 mM DMSO stock
Method in brief: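 SFC retention on a Chirex 3014 (S)-valine/(R)-1-(α-naphthyl)ethylamine column, 35 °C, CO2 with MeOH (20 mM ammonium formate) gradient 5–60% at 20%/min, 14 MPa outlet. Retention times converted to EPSA (Å^2) via linear calibration with 8 standards; samples from 1 mM DMSO stock, run in duplicate.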

[2] = molecular target: T1, interleukin-23 (IL-23) receptor (Homo sapiens, UniProt Q5VWK5); assay: PBMC pSTAT3 assay; assay type: cell-based
T1 construct: Cryopreserved peripheral blood mononuclear cells (PBMCs) from healthy donors were thawed; endogenous in cells; host or cells: cryopreserved PBMCs from healthy donors, expanded 4 days on anti-CD3 with IL-1
T1 sequence (Q5VWK5 24-629): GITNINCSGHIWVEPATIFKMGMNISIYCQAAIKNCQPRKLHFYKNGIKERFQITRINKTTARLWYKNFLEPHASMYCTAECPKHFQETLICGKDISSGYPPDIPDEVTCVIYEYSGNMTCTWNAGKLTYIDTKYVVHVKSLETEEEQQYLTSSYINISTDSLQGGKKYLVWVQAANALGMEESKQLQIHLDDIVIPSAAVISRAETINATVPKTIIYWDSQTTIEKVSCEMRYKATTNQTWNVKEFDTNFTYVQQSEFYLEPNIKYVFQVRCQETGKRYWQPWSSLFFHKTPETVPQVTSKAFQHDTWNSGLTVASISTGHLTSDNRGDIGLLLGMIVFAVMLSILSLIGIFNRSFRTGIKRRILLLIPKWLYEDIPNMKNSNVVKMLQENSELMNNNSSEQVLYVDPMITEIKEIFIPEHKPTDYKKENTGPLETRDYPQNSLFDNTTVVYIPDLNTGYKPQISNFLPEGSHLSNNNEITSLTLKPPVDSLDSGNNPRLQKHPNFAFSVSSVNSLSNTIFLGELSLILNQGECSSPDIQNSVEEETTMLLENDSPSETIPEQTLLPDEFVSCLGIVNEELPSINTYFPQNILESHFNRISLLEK
Method: Cryopreserved peripheral blood mononuclear cells (PBMCs) from healthy donors were thawed and washed twice in ImmunoCult-XF T cell expansion medium (XF-TCEM) supplemented with CTL anti-aggregate wash. The cells were counted, resuspended at 2×10^5 cells per mL XF-TCEM supplemented with penicillin/streptomycin and 100 ng/mL IL-1 (BioLegend, 579404), and cultured in tissue culture flasks coated with anti-CD3 (eBioscience, 16-0037-85 or BD Pharmingen, 555329) at 37° C. in 5% CO2. On day 4 of culture, PBMCs were collected, washed twice in RPMI-1640 supplemented with 0.1% BSA (RPMI-BSA), and incubated in RPMI-BSA in upright tissue culture flasks for 4 hours at 37° C. in 5% CO2. Following this ‘starvation,’ a total of 6×10^4 cells in […] RPMI-BSA was transferred into each well of a 384-well plate pre-spotted with peptide or DMSO. The cells were incubated for 30 minutes prior to the addition of IL-23 at a final concentration of 5 ng/mL. The cells were stimulated with cytokine for 30 minutes at 37° C. in 5% CO2, transferred onto ice for 10 minutes, and lysed. Cell lysates were stored at −80° C. until phosphorylated STAT3 was measured using the phospho-STAT panel kit (Meso Scale Discovery, K15202D).

[3] = molecular target: T2, IL-23R (Homo sapiens, UniProt Q5VWK5); assay: IL23R Reporter Assay; assay type: cell-based; details: HEK293 cells containing IL-23R, IL-12RP1 and STAT-inducible firefly luciferase reporter; 10 ng/mL IL-23 (EC90); 5 h at 37° C.; read-out: IL23R Reporter Assay
T2 construct: host or cells: HEK293
T2 sequence (Q5VWK5 24-629): T1 sequence (Q5VWK5 24-629)

Row | Structure (SMILES) | EPSA ([1]; listed as 1) [Å^2] | EPSA ([1]; read-out: EPSA) [A^2] | IC50 [2] [nM] | IC50 [3] [nM] | EPSA [1] [Å^2]
1 | CC(=O)N(C)CCCC[C@@H]1NC(=O)[C@H](Cc2c[nH]c3c(C)cccc23)NC(=O)[C@H]([C@@H](C)O)NC(=O)[C@H](CC(=O)N(C)C)NC(=O)[C@@H](NC(=O)C(F)(F)F)C(C)(C)SSC(C)(C)[C@@H](C(=O)N[C@@H](Cc2ccc(OCCN)cc2)C(=O)N[C@@H](Cc2ccc3ccccc3c2)C(=O)NC2(C(=O)N[C@@H](CCCCN(C)C(C)=O)C(=O)N[C@@H](CC(N)=O)C(=O)N[C@@H](Cc3cccnc3)C(=O)N(C)CC(=O)N(C)C)CCOCC2)NC1=O [compound 68, CF3CO-Pen(3)-N(N(Me)2)-T-7MeW-K(NMeAc)-Pen(3)-AEF-2Nal-THP-K(NMeAc)-N-3Pya-Sar-CON(Me)2] (Tfa-[Pen]D(NMe2)T[Trp(7-Me)][Lys(Me)](Ac)[Pen][AEF][2Nal][Thp][Lys(Me)](Ac)N[3Pal][Sar]-NMe2; disulfide 1-6) | – | 148 | 0.012 | – | –
2 | CC(=O)N(C)CCCC[C@@H]1NC(=O)[C@H](Cc2c[nH]c3c(C)cccc23)NC(=O)[C@H]([C@@H](C)O)NC(=O)[C@H](CC(=O)N(C)C)NC(=O)[C@@H](NC(=O)C(F)(F)F)C(C)(C)SSC(C)(C)[C@@H](C(=O)N[C@@H](Cc2ccc(OCCN(C)C)cc2)C(=O)N[C@@H](Cc2ccc3ccccc3c2)C(=O)NC2(C(=O)N[C@@H](CCC(=O)O)C(=O)N[C@@H](CC(N)=O)C(=O)N[C@@H](Cc3cccnc3)C(=O)N(C)CC(=O)N(C)C)CCOCC2)NC1=O [compound 104, CF3CO-Pen(3)-N(N(Me)2)-T-7MeW-K(NMeAc)-Pen(3)-AEF(N(Me)2)-2Nal-THP-E-N-3Pya-Sar-CON(Me)2] (Tfa-[Pen]D(NMe2)T[Trp(7-Me)][Lys(Me)](Ac)[Pen]Y(Me2NCH2CH2)[2Nal][Thp]EN[3Pal][Sar]-NMe2; disulfide 1-6) | – | 150 | 0.0032 | – | –
3 | CC(=O)N[C@H](CCCC[N+](C)(C)C)C(=O)N[C@@H]1C(=O)N[C@@H](CC(=O)N(C)C)C(=O)N[C@@H]([C@@H](C)O)C(=O)N[C@@H](Cc2c[nH]c3c(C)cccc23)C(=O)N[C@@H](CCCCN(C)C(C)=O)C(=O)N[C@H](C(=O)N[C@@H](Cc2ccc(OCCN(C)C)cc2)C(=O)N[C@@H](Cc2ccc3ccccc3c2)C(=O)NC2(C(=O)N[C@@H](CCC(=O)O)C(=O)N[C@@H](CC(N)=O)C(=O)N[C@@H](Cc3cccnc3)C(=O)N(C)CC(=O)N(C)C)CCOCC2)C(C)(C)SSC1(C)C [compound 105, MeCO-k(Me)3-Pen(3)-N(N(Me)2)-T-7MeW-K(NMeAc)-Pen(3)-AEF(N(Me)2)-2Nal-THP-E-N-3Pya-Sar-CON(Me)2] (Ac-[dLys(Me3)][Pen]D(NMe2)T[Trp(7-Me)][Lys(Me)](Ac)[Pen]Y(Me2NCH2CH2)[2Nal][Thp]EN[3Pal][Sar]-NMe2; disulfide 2-7) | – | 155 | 0.0075 | – | –
4 | Cc1cccc2c(C[C@@H]3NC(=O)[C@H]([C@@H](C)O)NC(=O)[C@H](CC(=O)N(C)C)NC(=O)[C@@H](NC(=O)CCOCCOCCOCCOCC[N+](C)(C)C)C(C)(C)SSC(C)(C)[C@@H](C(=O)N[C@@H](Cc4ccc(OCCN)cc4)C(=O)N[C@@H](Cc4ccc5ccccc5c4)C(=O)NC4(C(=O)N[C@@H](CCC(=O)O)C(=O)N[C@@H](CC(N)=O)C(=O)N[C@@H](Cc5cccnc5)C(=O)N(C)CC(=O)N(C)C)CCOCC4)NC(=O)[C@H](CCN(C)C(=O)CCOCCOCCOCCOCC[N+](C)(C)C)NC3=O)c[nH]c12 [compound 145, cPEG5aCO-Pen(3)-N(N(Me)2)-T-7MeW-Dab(NMecPEG5a)-Pen(3)-AEF-2Nal-THP-E-N-3Pya-Sar-CON(Me)2] ({Me3N+CH2CH2(OCH2CH2)4CO}-[Pen]D(NMe2)T[Trp(7-Me)][X1](Me3N+CH2CH2(OCH2CH2)4CO)[Pen][AEF][2Nal][Thp]EN[3Pal][Sar]-NMe2; disulfide 1-6) | – | 158 | 0.022 | 5.7 | –
5 | CC(=O)N(C)CCCC[C@@H]1NC(=O)[C@H](Cc2c[nH]c3c(C)cccc23)NC(=O)[C@H]([C@@H](C)O)NC(=O)[C@H](CC(=O)N(C)C)NC(=O)[C@@H](NC(=O)CCOCCOCC[N+](C)(C)C)C(C)(C)SSC(C)(C)[C@@H](C(=O)N[C@@H](Cc2ccc(OCCCCC[N+](C)(C)C)cc2)C(=O)N[C@@H](Cc2ccc3ccccc3c2)C(=O)NC2(C(=O)N[C@@H](CCCCN(C)C(C)=O)C(=O)N[C@@H](CC(N)=O)C(=O)N[C@@H](Cc3cccnc3)C(=O)N(C)CC(=O)N(C)C)CCOCC2)NC1=O [compound 164, cPEG3aCO-Pen(3)-N(N(Me)2)-T-7MeW-K(NMeAc)-Pen(3)-TMAPF-2Nal-THP-K(NMeAc)-N-3Pya-Sar-CON(Me)2] ({Me3N+(CH2)2O(CH2)2O(CH2)2CO}-[Pen]D(NMe2)T[Trp(7-Me)][Lys(Me)](Ac)[Pen]Y(X3)[2Nal][Thp][Lys(Me)](Ac)N[3Pal][Sar]-NMe2; disulfide 1-6) | – | – | 0.013 | – | 144.54

Second part, the compound after the results:

Row | EPSA ([1]; listed as 1) [Å^2] | EPSA ([1]; read-out: EPSA) [A^2] | IC50 [2] [nM] | IC50 [3] [nM] | EPSA [1] [Å^2] | Structure (SMILES)
6 | 179.2 | 166 | 0.0076 | ~6290 | – | CC(=O)NCCCC[C@H](NC(=O)C1(NC(=O)[C@H](Cc2ccc3ccccc3c2)NC(=O)[C@H](Cc2ccc(OCCN)cc2)NC(=O)[C@H]2NC(=O)[C@H](CCCCN(C)C(C)=O)NC(=O)[C@H](Cc3c[nH]c4c(C)cccc34)NC(=O)[C@H]([C@@H](C)O)NC(=O)[C@H](CC(N)=O)NC(=O)[C@@H](NC(C)=O)C(C)(C)SSC2(C)C)CCOCC1)C(=O)N[C@@H](CC(N)=O)C(=O)N[C@@H](Cc1cccnc1)C(=O)N(C)CC(N)=O [SEQ ID 57] (Ac-[Pen]NT[Trp(7-Me)][Lys(Me)](Ac)[Pen][AEF][2Nal][Thp]K(Ac)N[3Pal][Sar]-NH2; disulfide 1-6)
7 | – | 160 | 0.0081 | 3.2 | – | Cc1cccc2c(C[C@@H]3NC(=O)[C@H]([C@@H](C)O)NC(=O)[C@H](CC(N)=O)NC(=O)[C@@H](NC(=O)C(F)(F)F)C(C)(C)SSC(C)(C)[C@@H](C(=O)N[C@@H](Cc4ccc(OCCN)cc4)C(=O)N[C@@H](Cc4ccc5ccccc5c4)C(=O)NC4(C(=O)N[C@@H](CCC(=O)N(C)C)C(=O)N[C@@H](CC(N)=O)C(=O)N[C@@H](Cc5cccnc5)C(=O)N(C)CC(N)=O)CCOCC4)NC(=O)[C@H](CCC(=O)N(C)C)NC3=O)c[nH]c12 [compound 62] (Tfa-[Pen]NT[Trp(7-Me)]E(NMe2)[Pen][AEF][2Nal][Thp]E(NMe2)N[3Pal][Sar]-NH2; disulfide 1-6 (inferred))
8 | – | 171 | 0.0057 | – | – | CC(=O)NCCCC[C@@H]1NC(=O)[C@H](Cc2c[nH]c3c(C)cccc23)NC(=O)[C@H]([C@@H](C)O)NC(=O)[C@H](CC(N)=O)NC(=O)[C@@H](NC(=O)CCOCCOCC[N+](C)(C)C)C(C)(C)SSC(C)(C)[C@@H](C(=O)N[C@@H](Cc2ccc(OCCN)cc2)C(=O)N[C@@H](Cc2ccc3ccccc3c2)C(=O)NC2(C(=O)N[C@@H](CCC(=O)O)C(=O)N[C@@H](CC(N)=O)C(=O)N[C@@H](Cc3cccnc3)C(=O)N(C)CC(N)=O)CCOCC2)NC1=O [compound 82, cPEG3aCO-Pen(3)-N-T-7MeW-K(Ac)-Pen(3)-AEF-2Nal-THP-E-N-3Pya-Sar-CONH2] ({Me3N+(CH2)2O(CH2)2O(CH2)2CO}-[Pen]NT[Trp(7-Me)]K(Ac)[Pen][AEF][2Nal][Thp]EN[3Pal][Sar]-NH2; disulfide 1-6)
